Measurements taken from PMC4454357 (Archives of biochemistry and biophysics, 2015).
Where two headings read alike, the source gives them in different places. One block for each compound: values may come before it.

Key:
[1] = biological target: T1, AhR (Rattus norvegicus, UniProt P41738)
T1 sequence (P41738 10-853): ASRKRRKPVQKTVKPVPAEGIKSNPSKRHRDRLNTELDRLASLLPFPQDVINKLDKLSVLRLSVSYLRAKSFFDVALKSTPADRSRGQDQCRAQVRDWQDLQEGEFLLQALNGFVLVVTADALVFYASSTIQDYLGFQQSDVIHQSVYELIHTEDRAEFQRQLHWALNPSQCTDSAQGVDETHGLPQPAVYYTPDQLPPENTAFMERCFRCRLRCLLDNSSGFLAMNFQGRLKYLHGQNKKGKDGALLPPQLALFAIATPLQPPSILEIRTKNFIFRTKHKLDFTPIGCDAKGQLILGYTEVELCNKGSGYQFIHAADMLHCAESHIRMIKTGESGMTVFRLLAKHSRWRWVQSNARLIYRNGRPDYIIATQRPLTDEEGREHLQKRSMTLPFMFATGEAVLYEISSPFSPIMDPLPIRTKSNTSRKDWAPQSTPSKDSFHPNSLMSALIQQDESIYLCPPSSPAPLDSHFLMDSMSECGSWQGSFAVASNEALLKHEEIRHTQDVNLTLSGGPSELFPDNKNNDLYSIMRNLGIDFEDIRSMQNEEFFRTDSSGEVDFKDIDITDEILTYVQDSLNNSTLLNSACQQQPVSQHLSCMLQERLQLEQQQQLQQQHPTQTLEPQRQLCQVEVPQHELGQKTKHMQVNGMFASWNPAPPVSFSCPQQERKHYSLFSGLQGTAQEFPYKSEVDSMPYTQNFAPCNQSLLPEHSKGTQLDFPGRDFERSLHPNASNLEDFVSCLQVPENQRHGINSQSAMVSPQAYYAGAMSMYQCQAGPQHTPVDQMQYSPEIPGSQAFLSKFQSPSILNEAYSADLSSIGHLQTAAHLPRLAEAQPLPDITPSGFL

[2] = biological target: T2, AhR (Homo sapiens, UniProt P35869)
T2 sequence (P35869 11-848): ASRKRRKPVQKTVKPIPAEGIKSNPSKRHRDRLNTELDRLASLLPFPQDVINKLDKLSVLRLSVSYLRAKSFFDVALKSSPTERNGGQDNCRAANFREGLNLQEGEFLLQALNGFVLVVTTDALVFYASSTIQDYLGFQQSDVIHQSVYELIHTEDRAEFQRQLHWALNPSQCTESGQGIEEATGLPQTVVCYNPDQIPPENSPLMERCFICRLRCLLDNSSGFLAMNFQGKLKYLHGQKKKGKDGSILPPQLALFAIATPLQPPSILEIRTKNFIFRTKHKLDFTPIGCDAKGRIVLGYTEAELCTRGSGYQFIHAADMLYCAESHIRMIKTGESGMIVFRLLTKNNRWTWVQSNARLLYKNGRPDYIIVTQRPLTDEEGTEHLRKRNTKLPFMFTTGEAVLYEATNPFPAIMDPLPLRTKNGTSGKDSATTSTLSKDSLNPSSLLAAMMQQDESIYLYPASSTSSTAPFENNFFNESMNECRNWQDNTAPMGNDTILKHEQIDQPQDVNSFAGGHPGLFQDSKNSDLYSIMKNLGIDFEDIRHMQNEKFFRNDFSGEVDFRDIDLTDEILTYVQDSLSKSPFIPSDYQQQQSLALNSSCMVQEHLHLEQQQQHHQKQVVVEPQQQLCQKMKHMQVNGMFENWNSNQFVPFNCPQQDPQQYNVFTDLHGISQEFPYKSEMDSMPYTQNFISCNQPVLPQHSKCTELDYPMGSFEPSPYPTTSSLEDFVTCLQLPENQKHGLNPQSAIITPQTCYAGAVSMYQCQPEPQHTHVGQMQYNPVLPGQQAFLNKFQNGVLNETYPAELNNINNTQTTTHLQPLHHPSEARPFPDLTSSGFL

[3] = biological target: T3, AhR (Cavia porcellus, UniProt Q6J287)
T3 sequence (Q6J287 1-846): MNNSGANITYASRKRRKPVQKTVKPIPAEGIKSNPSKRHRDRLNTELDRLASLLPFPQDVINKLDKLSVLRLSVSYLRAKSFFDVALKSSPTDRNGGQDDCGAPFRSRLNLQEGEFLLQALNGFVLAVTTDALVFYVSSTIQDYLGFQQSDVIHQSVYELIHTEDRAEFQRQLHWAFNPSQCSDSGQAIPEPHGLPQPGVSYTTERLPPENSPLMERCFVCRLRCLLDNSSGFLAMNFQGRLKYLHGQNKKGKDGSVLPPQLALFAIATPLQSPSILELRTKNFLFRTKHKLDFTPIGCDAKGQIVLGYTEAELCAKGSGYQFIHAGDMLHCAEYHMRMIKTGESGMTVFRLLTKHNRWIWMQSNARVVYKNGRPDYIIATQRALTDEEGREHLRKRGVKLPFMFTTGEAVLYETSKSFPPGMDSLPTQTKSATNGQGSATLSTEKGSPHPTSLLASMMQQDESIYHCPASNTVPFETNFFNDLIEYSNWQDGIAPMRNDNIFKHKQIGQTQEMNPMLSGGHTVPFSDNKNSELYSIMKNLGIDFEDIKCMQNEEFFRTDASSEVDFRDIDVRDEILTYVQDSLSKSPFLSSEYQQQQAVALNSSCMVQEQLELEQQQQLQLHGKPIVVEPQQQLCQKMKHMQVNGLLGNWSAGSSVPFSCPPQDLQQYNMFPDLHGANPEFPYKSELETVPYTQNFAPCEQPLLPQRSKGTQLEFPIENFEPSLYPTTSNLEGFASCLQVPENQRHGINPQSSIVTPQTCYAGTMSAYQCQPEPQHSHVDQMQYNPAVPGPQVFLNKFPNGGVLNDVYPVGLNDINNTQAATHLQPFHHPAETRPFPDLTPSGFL

[4] = biological target: T2, AhR; test: AhR-dependent luciferase reporter gene assay, human hepatoma HG2L7.5c1; conditions: for difference in relative potency among the cell lines studied: human, mouse, rat and guinea pig cell lines compared
[5] = biological target: AhR (Mus musculus, UniProt P30561); test: AhR-dependent luciferase reporter gene assay, mouse hepatoma H1L7.5c3; conditions: mouse cell line
[6] = system: AhR; test: as above; conditions: EC50 mouse versus rat cell lines
[7] = biological target: T1, AhR; test: AhR-dependent luciferase reporter gene assay, rat hepatoma H4L7.5c2
[8] = biological target: T4, guinea pig hepatic cytosolic AhR (Cavia porcellus, UniProt Q6J287); test: [3H]TCDD competitive ligand binding, hydroxyapatite binding assay; conditions: 2 nM [3H]TCDD, 1 h, room temperature, guinea pig hepatic cytosol
T4 sequence (Q6J287 1-846): T3 sequence (Q6J287 1-846)

[9] = biological target: T3, AhR; remark: listed apart in the source
[10] = read-out: Relative potency (EC50) as activators of AhR-dependent reporter gene expression, Human cell line HG2L7.5c1, 6 h, mean of triplicate concentration response analysis

Chain of AhR (Mus musculus, UniProt P30561) (P30561 10-848): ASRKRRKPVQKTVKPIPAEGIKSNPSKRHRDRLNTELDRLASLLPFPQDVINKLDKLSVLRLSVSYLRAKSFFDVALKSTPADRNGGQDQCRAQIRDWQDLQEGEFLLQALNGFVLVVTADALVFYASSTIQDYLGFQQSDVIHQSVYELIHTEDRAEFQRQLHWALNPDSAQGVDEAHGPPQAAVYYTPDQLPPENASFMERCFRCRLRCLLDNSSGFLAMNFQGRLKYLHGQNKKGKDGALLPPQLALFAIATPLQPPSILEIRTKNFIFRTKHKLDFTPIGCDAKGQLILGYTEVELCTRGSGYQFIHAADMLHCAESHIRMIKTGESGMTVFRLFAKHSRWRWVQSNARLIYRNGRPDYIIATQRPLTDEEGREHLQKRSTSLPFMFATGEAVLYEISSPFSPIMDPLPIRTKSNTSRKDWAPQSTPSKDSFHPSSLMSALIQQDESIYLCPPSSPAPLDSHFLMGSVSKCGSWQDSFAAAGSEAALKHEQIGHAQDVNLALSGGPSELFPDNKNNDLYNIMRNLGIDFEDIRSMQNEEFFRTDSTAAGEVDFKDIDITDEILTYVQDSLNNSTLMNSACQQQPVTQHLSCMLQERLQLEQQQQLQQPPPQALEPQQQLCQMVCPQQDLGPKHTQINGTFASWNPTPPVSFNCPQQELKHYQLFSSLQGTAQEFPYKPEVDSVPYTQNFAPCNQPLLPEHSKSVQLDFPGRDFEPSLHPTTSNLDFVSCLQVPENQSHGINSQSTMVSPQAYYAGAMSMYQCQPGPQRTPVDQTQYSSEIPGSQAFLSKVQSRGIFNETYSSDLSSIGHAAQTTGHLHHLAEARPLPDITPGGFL

EC50 [1]: 4.3 nM | EC50 [2]: 4.9 nM | EC50 [3]: 4.3 nM | difference in relative potency among the cell lines studied [4]: lowest degree of difference
Compound: O=C(c1c[nH]c2ccccc12)c1nccc2c1[nH]c1ccccc12 [Pityriacitrin, pityriacitrin]

EC50 [1]: 56 nM | EC50 [2]: 11.1 nM | EC50 [3]: 276 nM | relative inducing potency difference between the human and mouse cell lines ([4]; EC50 human versus mouse hepatoma cells): ~ 26 fold
Compound: O=Cc1c(Cc2c[nH]c3ccccc23)[nH]c2ccccc12 [Malassezin, malassezin]

EC50 [7]: 0.94 nM | EC50 [9]: 0.95 nM
Compound: O=C1Nc2ccccc2/C1=C1/Nc2ccccc2C1=O [Indirubin, indirubin]

More lines, now with the values behind:

Compound: indolo[3,2-b]carbazole [ICZ]
EC50 [5]: 0.009 nM | difference in EC50 between the mouse and rat cell lines [6]: ~ 109 fold | EC50 [4, 10]: 0.6 nM

Compound: O=Cc1c2[nH]c3ccccc3c2cc2[nH]c3ccccc3c12 [FICZ, 6-formyl-indolo[3,2-b]carbazole]
EC50 [7]: 0.078 nM

Compound: pityriazepin
difference in relative potency among the cell lines studied [4]: lowest degree of difference | EC50 [4, 10]: 5 nM | displacement of [3H]TCDD [8]: displaced [^3H]TCDD from guinea pig hepatic cytosol in a concentration-dependent manner

Compound: O=C1c2ccccc2-n2c1nc1ccccc1c2=O [Tryptanthrin, tryptanthrin]
EC50 [7]: 946 nM | EC50 [9]: 181 nM

Compound: Clc1cc2c(cc1Cl)Oc1cc(Cl)c(Cl)cc1O2 [TCDD, 2,3,7,8-tetrachlorodibenzo-p-dioxin, reference compound]
EC50 [7]: 0.1 nM | EC50 [4]: 0.53 nM | EC50 [9]: 0.1 nM
